This is an account of results in US9605005B2, “Alkynyl alcohols and methods of use” (Genentech, Inc., priority 2013, dated 2017).

Molecules are shown by their SMILES.

nuclear factor-kappa B (NF-kB)-inducing kinase (NIK), sequence (Q99558 whole entry): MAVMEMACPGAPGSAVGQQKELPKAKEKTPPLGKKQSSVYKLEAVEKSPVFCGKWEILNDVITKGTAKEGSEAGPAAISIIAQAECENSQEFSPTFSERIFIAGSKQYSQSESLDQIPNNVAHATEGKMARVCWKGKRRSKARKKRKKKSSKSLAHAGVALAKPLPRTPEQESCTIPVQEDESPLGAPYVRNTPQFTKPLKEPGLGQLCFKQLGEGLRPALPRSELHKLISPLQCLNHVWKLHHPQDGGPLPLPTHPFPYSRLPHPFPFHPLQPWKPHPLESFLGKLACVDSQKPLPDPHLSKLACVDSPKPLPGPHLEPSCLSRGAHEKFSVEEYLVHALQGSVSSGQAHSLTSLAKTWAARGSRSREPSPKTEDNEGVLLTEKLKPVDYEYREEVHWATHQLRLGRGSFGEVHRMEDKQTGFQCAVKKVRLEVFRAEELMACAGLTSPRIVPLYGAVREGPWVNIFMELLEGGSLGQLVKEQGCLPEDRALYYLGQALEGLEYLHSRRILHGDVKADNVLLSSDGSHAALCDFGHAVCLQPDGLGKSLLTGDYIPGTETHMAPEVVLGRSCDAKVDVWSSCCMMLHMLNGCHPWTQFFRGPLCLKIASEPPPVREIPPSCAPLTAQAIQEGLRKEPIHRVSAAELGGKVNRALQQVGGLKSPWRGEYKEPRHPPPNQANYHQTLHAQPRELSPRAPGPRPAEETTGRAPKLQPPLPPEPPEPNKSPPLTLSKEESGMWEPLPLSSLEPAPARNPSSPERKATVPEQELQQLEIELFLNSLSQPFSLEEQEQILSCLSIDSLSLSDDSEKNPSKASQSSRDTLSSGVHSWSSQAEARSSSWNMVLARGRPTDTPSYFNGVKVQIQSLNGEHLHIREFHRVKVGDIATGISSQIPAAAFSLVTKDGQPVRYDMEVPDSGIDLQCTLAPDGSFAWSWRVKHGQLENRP

The first assay concerns the target nuclear factor-kappa B (NF-kB)-inducing kinase (NIK) (Homo sapiens (Human), UniProt Q99558). As to the kind of experiment: NIK enzyme inhibition assay (Transcreener ADP, NIK ADP-FP). The format is biochemical.
Conditions: not given
`CN1CC[C@@](O)(C#Cc2cccc(-n3nc(C(N)=O)c4cnncc43)c2)C1=O` [Compound 190, 1-[3-[2-[(3R)-3-hydroxy-1-methyl-2-oxo-pyrrolidin-3-yl]ethynyl]phenyl]pyrazolo [3,4-d]pyridazine-3-carboxamide] registered an inhibitory constant (Ki) of 6.8 nM.

Still in this assay, the particulars now being: purified NIK 0.5 nM, 10 μM ATP, fluorescence polarization; read-out: NIK ADP-FP (Ki μM).
For the molecule `CN1CC[C@@](O)(C#Cc2cccc(-n3nc(C(N)=O)c4cnc(N5CC[C@@H](O)C5)cc43)c2)C1=O` [Compound 138, 1-[3-[2-[(3R)-3-hydroxy-1-methyl-2-oxo-pyrrolidin-3-yl]ethynyl]phenyl]-6-[(3R)-3-hydroxypyrrolidin-1-yl]pyra-zolo[4,3-c]pyridine-3-carbox-amide], the Ki is 0.19 nM.

Consider `CN1CC[C@@](O)(C#Cc2cccc(-n3nc(C(N)=O)c4cnc(N5CC[C@H](O)C5)cc43)c2)C1=O` [Compound 139, 1-[3-[2-[(3R)-3-hydroxy-1-methyl-2-oxo-pyrrolidin-3-yl]ethynyl]phenyl]-6-[(3S)-3-hydroxypyrrolidin-1-yl]pyra-zolo[4,3-c]pyridine-3-carbox-amide], for which the Ki was determined as 0.39 nM.

With `CN(Cc1ccc2c(c1)c(C(N)=O)nn2-c1cc(C#C[C@]2(O)CCN(C)C2=O)ccn1)C(=O)CCCN` [Compound 141, 5-[[4-aminobutanoyl(meth-yl)amino]methyl]-1-[4-[2-[(3R)-3-hydroxy-1-methyl-2-oxo-pyrrolidin-3-yl]ethynyl]-2-pyridyl]indazole-3-carbox-amide], the Ki worked out at 3.27 nM.

For the molecule `CN1CC[C@](O)(C#Cc2cccc(-n3nc(C(N)=O)c4c3C(=O)NC4)c2)C1=O` [Compound 143, 1-[3-[2-[(3S)-3-hydroxy-1-methyl-2-oxo-pyrrolidin-3-yl]ethynyl]phenyl]-6-oxo-4,5-dihydropyrrolo[3,4-c]pyra-zole-3-carboxamide], the inhibitory constant (Ki) was determined as 1.54 nM.

Turning to `CN(C)C(=O)C(O)C#Cc1cccc(-n2nc(C(N)=O)c3ccccc32)c1` (stereo not shown) [Compound 163, 1-[3-[4-(dimethyalmino)-3-hydroxy-4-oxo-but-1-ynyl]phenyl]indazole-3-carboxamide], the Ki is 250 nM.

For the molecule `CN1CC[C@@](O)(C#Cc2cccc(-n3nc(C(N)=O)c4c3[C@@H](O)CC4)c2)C1=O` [Compound 168, (6S)-6-hydroxy-1-[3-[2-[(3R)-3-hydroxy-1-methyl-2-oxo-pyrrolidin-3-yl]ethynyl]phenyl]-5,6-dihydro-4H-cyclo-penta[c]pyrazole-3-carbox-amide], the Ki amounted to 33.7 nM.

In the case of `NC(=O)c1nn(-c2cccc(C#C[C@]3(O)CCOC3=O)c2)c2ccccc12` [Compound 171, 1-[3-[2-[(3R)-3-hydroxy-2-oxo-tetrahydrofuran-3-yl]eth-ynyl]phenyl]indazole-3-carbox-amide], the Ki came to 8.12 nM.

For `NC(=O)c1nn(-c2cccc(C#C[C@@]3(O)CCOC3=O)c2)c2ccccc12` [Compound 172, 1-[3-[2-[(3)S-3-hydroxy-2-oxo-tetrahydrofuran-3-yl]eth-ynyl]phenyl]indazole-3-carbox-amide], the Ki came to 473 nM.

Regarding `CN1CC[C@@](O)(C#Cc2cccc(-n3nc(C(N)=O)c4cccc(F)c43)c2)C1=O` [Compound 176, 7-fluoro-1-[3-[2-[(3R)-3-hydroxy-1-methyl-2-oxo-pyrrolidin-3-yl]ethynyl]phenyl] indazole-3-carboxamide], the Ki worked out at 1.27 nM.

`CN1CC[C@@](O)(C#Cc2cccc(-c3nc(C(N)=O)c4ccc(C(N)=O)cn34)c2)C1=O` [Compound 179, 3-[3-[2-[(3R)-3-hydroxy-1-methyl-2-oxo-pyrrolidin-3-yl]ethynyl]phenyl]imidazo [1,5-a]pyridine-1,6-dicarboxamide]: the Ki came to 11.1 nM.

Turning to `CN1CC[C@@](O)(C#Cc2cccc(-n3nc(C(N)=O)c4c3CCC(=O)N4)c2)C1=O` [Compound 180, 1-[3-[2-[(3R)-3-hydroxy-1-methyl-2-oxo-pyrrolidin-3-yl]ethynyl]phenyl]-5-oxo-6,7-dihydro-4H-pyrazolo [4,3-b]pyridine-3-carboxamide], the Ki came out at 0.35 nM.

With `CN1CC[C@@](O)(C#Cc2cccc(-n3nc(C(N)=O)c4cc(-c5ncc[nH]5)ccc43)c2)C1=O` [Compound 182, 1-[3-[2-[(3R)-3-hydroxy-1-methyl-2-oxo-pyrrolidin-3-yl]ethynyl]phenyl]-5-(1H-imidazol-2-yl)indazole-3-carboxamide], the Ki was found to be 1.51 nM.

With `COC1CN(c2cnc3c(c2)c(C(N)=O)nn3-c2cccc(C#C[C@]3(O)CCN(C)C3=O)c2)C1` [Compound 183, 1-[3-[2-[(3R)-3-hydroxy-1-methyl-2-oxo-pyrrolidin-3-yl]ethynyl]phenyl]-5-(3-methoxyazetidin-1-yl) pyrazolo[3,4-b]pyridine-3-carboxamide], the Ki was determined as 0.19 nM.

`CN(C)C(=O)c1ccc2c(c1)c(C(N)=O)nn2-c1cccc(C#C[C@]2(O)CCN(C)C2=O)c1` [Compound 184, 1-[3-[2-[(3R)-3-hydroxy-1-methyl-2-oxo-pyrrolidin-3-yl]ethynyl]phenyl]-N5, N5-dimethyl-indazole-3,5-dicarboxamide]: the Ki amounted to 103 nM.

Consider `CN1CC[C@@](O)(C#Cc2ccc(F)c(-n3nc(C(N)=O)c4c3COC4)c2)C1=O` [Compound 191, 1-[2-fluoro-5-[2-[(3R)-3-hydroxy-1-methyl-2-oxo-pyrrolidin-3-yl]ethynyl]phenyl]-4,6-dihydrofuro[3,4-c] pyrazole-3-carboxamide], for which the Ki amounted to 1.11 nM.

As for `CN1CC[C@@](O)(C#Cc2cccc(-c3nc(C(N)=O)c4n3CCC4)c2)C1=O` [Compound 192, 3-[3-[2-[(3R)-3-hydroxy-1-methyl-2-oxo-pyrrolidin-3-yl]ethynyl]phenyl]-6,7-dihydro-5H-pyrrolo[1,2-c] imidazole-1-carboxamide], the Ki was determined as 28.1 nM.

For `C[C@H]1Cc2c(C(N)=O)nn(-c3cccc(C#C[C@]4(O)CCN(C)C4=O)c3)c2C1` [Compound 193, (5S)-1-[3-[2-[(3R)-3-hydroxy-1-methyl-2-oxo-pyrrolidin-3-yl]ethynyl]phenyl]-5-methyl-5,6-dihydro-4H-cyclopenta[c]pyrazole-3-carboxamide], the Ki amounted to 0.1 nM.

As for `C[C@@H]1Cc2c(C(N)=O)nn(-c3cccc(C#C[C@]4(O)CCN(C)C4=O)c3)c2C1` [Compound 194, (5R)-1-[3-[2-[(3R)-3-hydroxy-1-methyl-2-oxo-pyrrolidin-3-yl]ethynyl]phenyl]-5-methyl-5,6-dihydro-4H-cyclopenta[c]pyrazole-3-carboxamide], the Ki was found to be 0.05 nM.

Turning to `CN1CC[C@@](O)(C#Cc2cccc(-c3nc(C(N)=O)c(N)s3)c2)C1=O` [Compound 195, 5-amino-2-[3-[2-[(3R)-3-hydroxy-1-methyl-2-oxo-pyrrolidin-3-yl]ethynyl]phenyl]thiazole-4-carboxamide], the Ki came to 0.05 nM.

Turning to `CNc1nc2c(s1)c(C(N)=O)nn2-c1cccc(C#C[C@]2(O)CCN(C)C2=O)c1` [Compound 196, 1-[3-[2-[(3R)-3-hydroxy-1-methyl-2-oxo-pyrrolidin-3-yl]ethynyl]phenyl]-5-(methylamino)pyrazolo[3,4-d] thiazole-3-carboxamide], the inhibition constant (Ki) was determined as 0.05 nM.

For `Cc1sc(-c2cc(C#C[C@]3(O)CCN(C)C3=O)ccc2F)nc1C(N)=O` [Compound 197, 2-[2-fluoro-5-[2-[(3R)-3-hydroxy-1-methyl-2-oxo-pyrrolidin-3-yl]ethynyl]phenyl]-5-methyl-thiazole-4-carboxamide], the Ki came out at 0.053 nM.

For the molecule `CN1CC[C@@](O)(C#Cc2cccc(-n3nc(C(N)=O)c4c3NCCC4)c2)C1=O` [Compound 198, 1-[3-[2-[(3R)-3-hydroxy-1-methyl-2-oxo-pyrrolidin-3-yl]ethynyl]phenyl]-4,5,6,7-tetrahydropyrazolo[3,4-b]pyridine-3-carboxamide], the Ki was 0.29 nM.

On to `CN1CC[C@@](O)(C#Cc2cccc(-n3nc(C(N)=O)c4c3CC(F)(F)C4)c2)C1=O` [Compound 199, 5,5-difluoro-1-[3-[2-[(3R)-3-hydroxy-1-methyl-2-oxo-pyrrolidin-3-yl]ethynyl]phenyl]-4,6-dihydrocyclopenta [c]pyrazole-3-carboxamide], for which the Ki turned out to be 0.26 nM.

Another assay concerns REL-A (p65) nuclear translocation, HeLa cells. Description: REL-A (p65) nuclear translocation assay in HeLa cells (classical NF-kB signaling, TNF-α stimulated). The following applies: Homo sapiens, 0.5 h; HeLa cells, 10 ng/mL TNF-α for 30 minutes; read-out: REL-A HeLa Transloc Assay (IC50). The format is cell-based. The protocol: (§1) Several assays were developed to profile the cellular activities of NIK inhibitors.
(§2) (2) A second set of cell assay are used to define the selectivity of NIK inhibitors toward inhibition of classical vs. non-classical NF-kB signaling and rely on quantification of the nuclear translocation of p52 (NF-kB2) and REL-A (p65) using high content cellular imaging. For the p52 (non-classical NF-kB signaling) nuclear translocation assay, HeLa cells are treated with different concentrations of compounds (0.2% DMSO final) in medium containing 10% fetal bovine serum and then stimulated with 100 ng/mL of an anti-lymphotoxin beta receptor antibody (R&D Systems) for 5 hours. In the REL-A nuclear translocation assay, HeLa cells are incubated with compounds (0.2% DMSO final) for 4.5 hours in medium containing 10% fetal bovine serum before stimulating them with 10 ng/mL tumor necrosis factor (TNF)-α (R&D Systems) for 30 minutes. Cells are fixed with 4% paraformaldehyde, permeabilized by adding 0.1% Triton X-100 in phosphate buffered saline, and then are incubated with either 2 ug/mL anti-p52 antibody (Millipore) or 400 ng/mL anti-REL-A (p65) antibody (Santa Cruz Biotechnology). Finally, the cells are incubated with an Alexa488-labeled secondary antibody (Invitrogen) and DRAQ5 DNA stain (Biostatus). Imaging is carried out using an Opera reader (Perkin Elmer) and data are analyzed with the aid of Acapella software (Perkin Elmer). The p52 or REL-Atranslocation into the nucleus is quantified by the ratio of the nuclear to cytoplasmic signal intensity. […] The compounds in listed in Table 1 have the corresponding inhibitory value (IC50 in micromolar) for NIK p52 Translocation Assay as set forth in Table 2.
(§3) The compounds in listed in Table 1 have the corresponding inhibitory values (IC50 in micromolar) for the Translocation Assays as set forth in Table 2.
On to `CN1CC[C@@](O)(C#Cc2cccc(-n3nc(C(N)=O)c4ccccc43)c2)C1=O` [Compound 1, 1-[3-[2-[(3R)-3-hydroxy-1-methyl-2-oxo-pyrrolidin-3-yl]ethynyl]phenyl]indazole-3-carboxamide], for which the IC50 turned out to be 20000 nM.

For `CN1CC[C@@](O)(C#Cc2cccc(-n3nc(C(N)=O)c4cc(F)ccc43)c2)C1=O` [Compound 13, 5-fluoro-1-[3-[2-[(3R)-3-hy-droxy-1-methyl-2-oxo-pyrroli-din-3-yl]ethynyl]phenyl] indazole-3-carboxamide], the IC50 was 20000 nM.

A further assay has as its system p52 (NF-kB2) nuclear translocation, HeLa cells. Description: p52 (NF-kB2) nuclear translocation assay in HeLa cells (non-classical NF-kB signaling, anti-lymphotoxin beta receptor antibody stimulated). The assay is classed as cell-based. The following applies: Homo sapiens, 100 ng/mL anti-lymphotoxin beta receptor antibody for 5 hours, read-out: p52 HeLa Transloc Assay (IC50). How it is done: as §1, §2, §3
In the case of `CN1CC[C@@](O)(C#Cc2cccc(-n3nc(C(N)=O)c4ccccc43)c2)C1=O` [Compound 1, 1-[3-[2-[(3R)-3-hydroxy-1-methyl-2-oxo-pyrrolidin-3-yl]ethynyl]phenyl]indazole-3-carboxamide], the IC50 came to 57 nM.

`CN1CC[C@@](O)(C#Cc2cccc(-n3nc(C(N)=O)c4cc(F)ccc43)c2)C1=O` [Compound 13, 5-fluoro-1-[3-[2-[(3R)-3-hy-droxy-1-methyl-2-oxo-pyrroli-din-3-yl]ethynyl]phenyl] indazole-3-carboxamide]: the IC50 amounted to 73 nM.
